Assay results taken from publication PMC8205226, “HIV-1 Integrase Inhibitors with Modifications That Affect Their Potencies against Drug Resistant Integrase Mutants” (ACS Infectious Diseases, 2021).
Read-outs that look alike come from different tables or passages of the source.

Experiments:
Assay type in all cases: cell-based
WT HIV-1 = test: single-round infectivity assay, WT HIV-1 IN vector; conditions: Human immunodeficiency virus 1, read-out: EC50 values WT, vector carrying WT HIV-1 IN, single round infection, n = 4; new compounds
Experimental: (§1) Figure 2 Antiviral activities of the new compounds against RAL-resistant mutants. The EC50 values were determined using a vector that carries WT HIV-1 IN and the RAL-resistant mutants in a single round infection assay. […] Error bars represent the standard deviations of independent experiments, n = 4, performed in triplicate. The graph has a maximum value of 550 nM.
(§2) WT and mutant HIV-1 viral vectors were used in single-round infectivity assays to determine the antiviral potencies (EC50 values) of the compounds and the effects of the mutants on the EC50 values as previously described.[30],[54] Single round infectivity measurements were determined as done previously.[38]
(§3) The vector pNLNgoMIVR-ΔENV.LUC has been described previously.[26] To produce the new IN mutants used in this study, the IN open reading frame was removed from pNLNgoMIVR-ΔENV.LUC by digestion with KpnI and SalI, and the resulting fragment was inserted between the KpnI and SalI sites of pBluescript KS+. Using that construct as the wild-type template, we prepared the following HIV-1 IN mutants using the QuikChange II XL site directed mutagenesis kit (Agilent Technologies, Santa Clara, CA) protocol: N117A, N117H, P142A, P142H, P142S, Y143C, Y143H, S230R, R231G, and R231K. The following sense oligonucleotides were used with matching cognate antisense oligonucleotides (not shown) (Integrated DNA Technologies, Coralville, IA) in the mutagenesis: N117A, 5′-[…]-3′; N117H, 5′-[…]-3′; P142A, 5′-[…]-3′; P142H, 5′-[…]-3′; P142S, 5′-[…]-3′; Y143C, 5′- […]-3′; Y143H, 5′-[…]-3′; S230R, 5′- […]-3′; R231G, 5′-[…]-3′; R231K, 5′-[…]-3′.

HIV-1 IN mutant Y143R = test: single-round infectivity assay, Y143R IN mutant
Experimental: as §1, §2, §3

HIV-1 IN mutant N155H = test: single-round infectivity assay, N155H IN mutant
Experimental: as §1, §2, §3

[1] = tested on: HIV-1 IN double mutant G140S/Q148H; test: single-round infectivity assay, G140S/Q148H IN double mutant
Experimental: as §1, §2, §3

HIV-1 IN mutant N117A = test: single-round infectivity assay, N117A IN mutant
Experimental: (§4) The EC50 values were determined using a vector that carries the IN mutant in a single round infection assay. […] Error bars represent the standard deviations of independent experiments, n = 4, performed in triplicate.
as §2, §3

HIV-1 IN mutant N117H = test: single-round infectivity assay, N117H IN mutant
Experimental: as §4, §2, §3

HIV-1 IN mutant G118R = test: single-round infectivity assay, G118R IN mutant
Experimental: as §4, §2, §3

HIV-1 IN mutant S119R = test: single-round infectivity assay, S119R IN mutant
Experimental: as §4, §2, §3

HIV-1 IN mutant Y143C = test: single-round infectivity assay, Y143C IN mutant
Experimental: (§5) Figure 4 Mutations in the β5-α3 loop affect the antiviral potencies of the new compounds. The EC50 values were determined using a vector that carries the IN mutant in a single round infection assay. […] Error bars represent the standard deviations of independent experiments, n = 4, performed in triplicate.
as §2, §3

HIV-1 IN mutant Y143H = test: single-round infectivity assay, Y143H IN mutant
Experimental: as §5, §2, §3

HIV-1 IN mutant P142A = test: single-round infectivity assay, P142A IN mutant
Experimental: as §5, §2, §3

HIV-1 IN mutant P142H = test: single-round infectivity assay, P142H IN mutant
Experimental: as §4
Single round infectivity measurements were determined as done previously.[38]
as §3

HIV-1 IN mutant P142S = test: single-round infectivity assay, P142S IN mutant
Experimental: as §5, §2, §3

HIV-1 IN mutant S230R = test: single-round infectivity assay, S230R IN mutant
Experimental: (§6) Figure 5 Antiviral potencies of the new compounds against IN with mutations in the […]. The EC50 values were determined using a vector that carries the IN mutant in a single round infection assay. […] Error bars represent the standard deviations of independent experiments, n = 4, performed in triplicate.
as §2, §3

HIV-1 IN mutant R231G = test: single-round infectivity assay, R231G IN mutant
Experimental: as §6, §2, §3

HIV-1 IN mutant R231K = test: single-round infectivity assay, R231K IN mutant
Experimental: as §6, §2, §3

[2] = fold change in EC50, IN mutant versus WT HIV-1

## O=C(NCc1ccc(F)cc1F)c1c(O)c2cc(CCS(=O)(=O)c3ccccc3)cnc2n(O)c1=O [6w, N-(2,4-Difluorobenzyl)-1,4-dihydroxy-2-oxo-6-(2-(phenylsulfonyl)ethyl)-1,2-dihydro-1,8-naphthyridine-3-carboxamide]
WT HIV-1
  EC50: 10.6 ± 1 nM
HIV-1 IN mutant Y143R; EC50 compound / EC50 DTG
  ratio of the EC50s (our compound relative to DTG) against Y143R: 1.7
HIV-1 IN mutant Y143R; Human immunodeficiency virus 1, read-out: EC50 values Y143R
  EC50: 7.2 ± 1.7 nM
HIV-1 IN mutant Y143R; [2]
  FC Y143R: 0.7
HIV-1 IN mutant N155H; EC50 compound / EC50 DTG
  ratio of the EC50s (our compound relative to DTG) against N155H: 3.9
HIV-1 IN mutant N155H; Human immunodeficiency virus 1, read-out: EC50 values N155H
  EC50: 14.1 ± 4.3 nM
HIV-1 IN mutant N155H; [2]
  FC N155H: 1.3
[1]; EC50 6w / EC50 4f
  FC, difference in potencies 6w compared to 4f against G140S/Q148H: 18.8
[1]; EC50 compound / EC50 DTG
  ratio of the EC50s (our compound relative to DTG) against G140S/Q148H: 16.8
[1]; Human immunodeficiency virus 1, read-out: EC50 values G140S/Q148H
  EC50: 97.5 ± 16.8 nM
[1]; [2]
  FC G140S/Q148H: 9.2
HIV-1 IN mutant N117A; EC50 compound / EC50 DTG
  ratio of the EC50s (our compound relative to DTG) against N117A: 12.8
HIV-1 IN mutant N117A; Human immunodeficiency virus 1, read-out: EC50 values N117A
  EC50: 6.4 nM
HIV-1 IN mutant N117A; [2]
  FC N117A: 0.6
HIV-1 IN mutant N117H; EC50 compound / EC50 DTG
  ratio of the EC50s (our compound relative to DTG) against N117H: 7.9
HIV-1 IN mutant N117H; Human immunodeficiency virus 1, read-out: EC50 values N117H
  EC50: 19 ± 1.4 nM
HIV-1 IN mutant N117H; [2]
  FC N117H: 1.8
HIV-1 IN mutant G118R; EC50 compound / EC50 DTG
  ratio of the EC50s (our compound relative to DTG) against G118R: 16.8
HIV-1 IN mutant G118R; Human immunodeficiency virus 1, read-out: EC50 values G118R
  EC50: 219 ± 29.8 nM
HIV-1 IN mutant G118R; [2]
  FC G118R: 20.7
HIV-1 IN mutant S119R; EC50 compound / EC50 DTG
  ratio of the EC50s (our compound relative to DTG) against S119R: 16.6
HIV-1 IN mutant S119R; Human immunodeficiency virus 1, read-out: EC50 values S119R
  EC50: 38.2 ± 6 nM
HIV-1 IN mutant S119R; [2]
  FC S119R: 3.6
HIV-1 IN mutant Y143C; EC50 compound / EC50 DTG
  ratio of the EC50s (our compound relative to DTG) against Y143C: 13.4
HIV-1 IN mutant Y143C; Human immunodeficiency virus 1, read-out: EC50 values Y143C, single round infection, n = 4
  EC50: 18.8 ± 1.4 nM
HIV-1 IN mutant Y143C; read-out: EC50 values Y143C, single round infection, n = 4
  EC50: > 18 nM
HIV-1 IN mutant Y143H; EC50 compound / EC50 DTG
  ratio of the EC50s (our compound relative to DTG) against Y143H: 11.4
HIV-1 IN mutant Y143H; Human immunodeficiency virus 1, read-out: EC50 values Y143H, single round infection, n = 4
  EC50: 25.1 ± 3.6 nM
HIV-1 IN mutant Y143H; read-out: EC50 values Y143H, single round infection, n = 4
  EC50: > 18 nM
HIV-1 IN mutant P142A; EC50 compound / EC50 DTG
  ratio of the EC50s (our compound relative to DTG) against P142A: 9.1
HIV-1 IN mutant P142A; Human immunodeficiency virus 1, read-out: EC50 values P142A
  EC50: 22.8 ± 2.5 nM
HIV-1 IN mutant P142H; EC50 compound / EC50 DTG
  ratio of the EC50s (our compound relative to DTG) against P142H: 9.2
HIV-1 IN mutant P142H; Human immunodeficiency virus 1, read-out: EC50 values P142H
  EC50: 25.7 ± 2 nM
HIV-1 IN mutant P142S; EC50 compound / EC50 DTG
  ratio of the EC50s (our compound relative to DTG) against P142S: 14.2
HIV-1 IN mutant P142S; Human immunodeficiency virus 1, read-out: EC50 values P142S
  EC50: 31.2 ± 3.7 nM
HIV-1 IN mutant S230R; EC50 compound / EC50 DTG
  ratio of the EC50s (our compound relative to DTG) against S230R: 2.4
HIV-1 IN mutant S230R; Human immunodeficiency virus 1, read-out: EC50 values S230R
  EC50: 11.2 ± 1.6 nM
HIV-1 IN mutant S230R; [2]
  FC S230R: 1.1
HIV-1 IN mutant R231G; EC50 compound / EC50 DTG
  ratio of the EC50s (our compound relative to DTG) against R231G: 10.9
HIV-1 IN mutant R231G; Human immunodeficiency virus 1, read-out: EC50 values R231G
  EC50: 15.2 ± 1.4 nM
HIV-1 IN mutant R231G; [2]
  FC R231G: 1.4
HIV-1 IN mutant R231K; EC50 compound / EC50 DTG
  ratio of the EC50s (our compound relative to DTG) against R231K: 6.7
HIV-1 IN mutant R231K; Human immunodeficiency virus 1, read-out: EC50 values R231K, single round infection, n = 4
  EC50: 28.2 ± 3.9 nM
HIV-1 IN mutant R231K; [2]
  FC R231K: 2.7
